Experiment [1] has as its target Kinesin-like protein KIF11 (Homo sapiens, UniProt P52732). The experiment can be described thus: Kinesin ATPase In Vitro Assay. The following applies: pH 7; 23 °C. As to the method: The kinesin motor domain is incubated with microtubules, 1 mM ATP (1: 1 MgCl2 : Na-ATP), and compound at 23°C in buffer. After reaction was terminated, free ph osphate from the ATP hydrolysis reaction is measured via a quinaldine red/ammoni um molybdate assay. The absorbance of the phospho-molybdate complex is […] Human poly-histidine tagged KSP motor domain was cloned, and protein was expressed in E. coli.

Experiment [2] has as its target Potassium voltage-gated channel subfamily H member 2 (Homo sapiens, UniProt Q12809). The experiment can be described thus: hERG Radioligand Competition Assay. The following applies: pH 7.4; 22 °C. The procedure: The hERG IC50 values were determined by radioligand competition experiments using membrane preparations from human embryonic kidney cells that stably express hERG.
Background: hERG is a cardiac potassium channel; its block is linked to QT prolongation.

One may read the IC50 as the point on the concentration scale where inhibition reaches its midpoint. Low values mean higher potency, high ones lower potency.

Sequence of Kinesin-like protein KIF11 (P52732 whole entry, looked up, the tested form may be a part): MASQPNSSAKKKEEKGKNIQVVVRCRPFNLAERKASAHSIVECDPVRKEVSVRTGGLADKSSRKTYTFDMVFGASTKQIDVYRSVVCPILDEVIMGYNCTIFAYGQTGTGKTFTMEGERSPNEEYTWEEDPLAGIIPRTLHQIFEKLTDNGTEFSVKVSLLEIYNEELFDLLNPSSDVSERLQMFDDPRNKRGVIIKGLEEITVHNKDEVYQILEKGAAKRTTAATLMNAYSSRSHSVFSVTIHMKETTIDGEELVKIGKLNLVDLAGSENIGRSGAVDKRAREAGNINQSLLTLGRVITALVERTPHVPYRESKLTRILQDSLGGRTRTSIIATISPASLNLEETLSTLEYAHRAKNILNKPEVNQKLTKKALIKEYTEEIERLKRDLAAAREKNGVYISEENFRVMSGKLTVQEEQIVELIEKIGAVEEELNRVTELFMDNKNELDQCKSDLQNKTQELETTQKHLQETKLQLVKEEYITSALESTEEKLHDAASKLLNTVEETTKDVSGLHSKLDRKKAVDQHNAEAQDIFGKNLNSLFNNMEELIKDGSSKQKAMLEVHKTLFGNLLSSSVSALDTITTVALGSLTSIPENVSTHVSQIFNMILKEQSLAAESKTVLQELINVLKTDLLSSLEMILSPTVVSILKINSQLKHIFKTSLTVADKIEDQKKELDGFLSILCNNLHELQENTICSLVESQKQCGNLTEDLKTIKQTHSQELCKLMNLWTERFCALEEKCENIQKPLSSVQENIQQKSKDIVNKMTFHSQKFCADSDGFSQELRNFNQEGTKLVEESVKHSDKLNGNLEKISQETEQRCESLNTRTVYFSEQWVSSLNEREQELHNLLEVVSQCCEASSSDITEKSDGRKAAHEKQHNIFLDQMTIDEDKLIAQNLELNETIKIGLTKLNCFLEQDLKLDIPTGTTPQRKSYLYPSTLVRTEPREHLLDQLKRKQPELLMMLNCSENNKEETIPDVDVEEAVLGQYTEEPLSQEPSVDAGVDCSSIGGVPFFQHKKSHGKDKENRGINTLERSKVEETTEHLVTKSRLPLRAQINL
Sequence of Potassium voltage-gated channel subfamily H member 2 (Q12809 whole entry): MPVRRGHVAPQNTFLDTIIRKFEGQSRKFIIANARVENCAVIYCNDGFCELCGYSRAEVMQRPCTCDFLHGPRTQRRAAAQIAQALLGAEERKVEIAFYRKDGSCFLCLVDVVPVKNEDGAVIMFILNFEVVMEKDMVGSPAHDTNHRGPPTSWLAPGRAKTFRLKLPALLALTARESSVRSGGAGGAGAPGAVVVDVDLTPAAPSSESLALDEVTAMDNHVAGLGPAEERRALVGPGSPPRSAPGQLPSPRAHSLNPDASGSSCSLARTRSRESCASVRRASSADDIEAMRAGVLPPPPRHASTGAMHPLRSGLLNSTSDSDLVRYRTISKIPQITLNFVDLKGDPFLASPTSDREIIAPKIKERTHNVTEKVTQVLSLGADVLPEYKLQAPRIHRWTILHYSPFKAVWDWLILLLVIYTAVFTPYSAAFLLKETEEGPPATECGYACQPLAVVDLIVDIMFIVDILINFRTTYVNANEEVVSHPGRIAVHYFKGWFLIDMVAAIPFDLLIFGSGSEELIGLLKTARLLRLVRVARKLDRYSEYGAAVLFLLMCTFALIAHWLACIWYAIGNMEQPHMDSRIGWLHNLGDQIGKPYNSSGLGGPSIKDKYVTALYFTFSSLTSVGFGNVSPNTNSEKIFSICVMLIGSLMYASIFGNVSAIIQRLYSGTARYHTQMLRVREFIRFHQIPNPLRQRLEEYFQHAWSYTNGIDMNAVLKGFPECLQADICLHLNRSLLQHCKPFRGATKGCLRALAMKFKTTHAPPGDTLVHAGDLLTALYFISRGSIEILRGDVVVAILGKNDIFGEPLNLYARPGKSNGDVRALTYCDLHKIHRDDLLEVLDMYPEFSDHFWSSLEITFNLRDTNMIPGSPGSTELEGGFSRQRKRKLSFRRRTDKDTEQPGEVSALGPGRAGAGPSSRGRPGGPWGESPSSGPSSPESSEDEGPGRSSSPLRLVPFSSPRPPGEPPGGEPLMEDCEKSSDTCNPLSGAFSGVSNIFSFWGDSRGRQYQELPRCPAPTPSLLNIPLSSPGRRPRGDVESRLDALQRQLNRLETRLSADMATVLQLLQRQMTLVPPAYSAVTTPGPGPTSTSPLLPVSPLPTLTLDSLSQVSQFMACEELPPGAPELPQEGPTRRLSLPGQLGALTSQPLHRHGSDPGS

Turning to `CNC(=O)N1N=C(c2cc(F)ccc2F)CC1c1ccccc1` (stereo not drawn), in experiment [1], the half-inhibitory concentration (IC50) amounted to 3140 nM.
Same read-out and setting: to `CC(=O)N1N=C(c2ccccc2Cl)C[C@H]1c1cccc(O)c1` [1-[(5S)-3-(2-chlorophenyl)-5-(3-hydroxyphenyl)-4,5-dihydro-1H-pyrazol-1-yl]ethan-1-one] belongs 450 nM.
For the compound `CN(C)C(=O)N1N=C(c2cc(F)ccc2F)C[C@@]1(CCCN)c1ccccc1` [(5S)-5-(3-aminopropyl)-3-(2,5-difluorophenyl)-N,N-dimethyl-5-phenyl-4,5-dihydro-1H-pyrazole-1-carboxamide], in experiment [2], the IC50 worked out at 19.3 µM. This counts as double-digit micromolar.

The values are drawn from BindingDB's records for doi:10.1016/j.bmcl.2006.03.040 (Merck Research Laboratories, 2006).
